Results: ChEMBL document CHEMBL5241074, “Dual-target compounds for Alzheimer's disease: Natural and synthetic AChE and BACE-1 dual-inhibitors and their structure-activity relationship (SAR)” (Eur J Med Chem, 2021)

Assays:
[1] = target: T1, Acetylcholinesterase (Homo sapiens, UniProt P22303); assay: Inhibition of AChE (unknown origin)
[2] = target: T2, Beta-secretase 1 (Homo sapiens, UniProt P56817); assay: Inhibition of BACE1 (unknown origin)
[3] = target: T2, Beta-secretase 1; assay: Inhibition of BACE1 (unknown origin) at 2.5 uM relative to control
[4] = target: T2, Beta-secretase 1; assay: Inhibition of BACE1 (unknown origin) at 5 uM relative to control
[5] = target: T1, Acetylcholinesterase; assay: Inhibition of AChE (unknown origin) at 100 uM relative to control
[6] = target: T2, Beta-secretase 1; assay: Inhibition of BACE1 (unknown origin) at 100 uM relative to control
[7] = target: T2, Beta-secretase 1; assay: Inhibition of human recombinant BACE1
[8] = target: T1, Acetylcholinesterase; assay: Inhibition of human recombinant AchE
[9] = target: Acetylcholinesterase (Electrophorus electricus, UniProt O42275); assay: Inhibition of Electrophorus electricus AchE
Chain of Acetylcholinesterase (Electrophorus electricus, UniProt O42275) (O42275 whole entry): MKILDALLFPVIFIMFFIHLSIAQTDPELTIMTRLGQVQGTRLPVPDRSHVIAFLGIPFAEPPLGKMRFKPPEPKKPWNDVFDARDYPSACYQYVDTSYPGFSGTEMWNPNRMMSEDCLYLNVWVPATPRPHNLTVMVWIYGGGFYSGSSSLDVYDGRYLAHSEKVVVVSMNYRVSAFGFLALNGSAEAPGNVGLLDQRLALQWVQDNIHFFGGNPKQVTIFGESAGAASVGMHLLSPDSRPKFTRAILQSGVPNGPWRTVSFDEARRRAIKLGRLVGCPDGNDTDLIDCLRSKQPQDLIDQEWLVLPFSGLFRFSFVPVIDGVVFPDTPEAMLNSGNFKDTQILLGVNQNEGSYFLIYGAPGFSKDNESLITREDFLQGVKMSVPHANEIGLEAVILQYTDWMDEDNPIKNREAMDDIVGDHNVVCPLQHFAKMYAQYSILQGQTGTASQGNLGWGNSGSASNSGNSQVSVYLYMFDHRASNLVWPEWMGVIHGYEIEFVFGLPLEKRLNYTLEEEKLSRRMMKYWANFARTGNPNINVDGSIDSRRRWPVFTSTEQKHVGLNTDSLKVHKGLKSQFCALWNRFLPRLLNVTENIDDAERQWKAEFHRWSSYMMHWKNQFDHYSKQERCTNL

T2 sequence (P56817 whole entry): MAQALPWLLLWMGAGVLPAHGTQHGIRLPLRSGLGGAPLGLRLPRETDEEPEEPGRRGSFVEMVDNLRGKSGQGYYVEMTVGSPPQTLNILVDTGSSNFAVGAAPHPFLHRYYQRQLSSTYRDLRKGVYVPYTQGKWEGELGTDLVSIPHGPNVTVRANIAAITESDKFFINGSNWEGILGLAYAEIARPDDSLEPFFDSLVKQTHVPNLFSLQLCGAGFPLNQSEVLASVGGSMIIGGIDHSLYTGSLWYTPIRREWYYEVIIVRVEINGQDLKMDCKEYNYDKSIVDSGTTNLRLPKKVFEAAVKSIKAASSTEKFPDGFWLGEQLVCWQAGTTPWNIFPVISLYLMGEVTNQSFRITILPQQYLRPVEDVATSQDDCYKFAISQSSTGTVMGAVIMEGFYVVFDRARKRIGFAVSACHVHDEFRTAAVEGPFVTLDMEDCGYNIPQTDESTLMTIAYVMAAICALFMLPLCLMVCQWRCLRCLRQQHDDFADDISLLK
T1 sequence (P22303 whole entry): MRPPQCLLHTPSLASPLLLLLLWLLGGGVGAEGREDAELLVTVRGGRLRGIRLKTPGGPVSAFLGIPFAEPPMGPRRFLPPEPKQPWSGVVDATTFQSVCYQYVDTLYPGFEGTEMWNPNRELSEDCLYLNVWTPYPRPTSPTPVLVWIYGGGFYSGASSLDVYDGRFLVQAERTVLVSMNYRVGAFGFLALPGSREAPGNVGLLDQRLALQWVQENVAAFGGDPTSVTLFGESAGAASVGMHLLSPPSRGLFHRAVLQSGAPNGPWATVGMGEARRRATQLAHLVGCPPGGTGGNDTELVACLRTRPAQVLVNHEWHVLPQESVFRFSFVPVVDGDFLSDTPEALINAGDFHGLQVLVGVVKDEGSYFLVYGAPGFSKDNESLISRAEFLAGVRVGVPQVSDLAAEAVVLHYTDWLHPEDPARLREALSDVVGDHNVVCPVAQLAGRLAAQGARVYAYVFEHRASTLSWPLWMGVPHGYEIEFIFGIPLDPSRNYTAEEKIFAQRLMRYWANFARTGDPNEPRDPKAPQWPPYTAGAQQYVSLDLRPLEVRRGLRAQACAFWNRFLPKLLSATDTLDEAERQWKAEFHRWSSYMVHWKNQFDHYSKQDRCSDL

SMILES	IC50 [1]	IC50 [2]	also measured
O=C1Cc2cc(N3C(=O)c4ccccc4C3=O)ccc2CN1C(=O)c1ccccc1	65.6 nM	5.87 nM	
O=C(NCCCCCCCNc1c2c(nc3cc(Cl)ccc13)CCCC2)c1ccc2nc(-c3ccc(Cl)cc3)c3c(c2c1)OCCC3			inhibition [3]: 14.5%
Cc1cc2c(c(C)c1CCO[C@@H]1O[C@H](CO)[C@@H](O)[C@H](O)[C@H]1O)C(=O)C(C)(C)[C@H]2O	27400 nM	10700 nM	
COc1cc(/C=C/c2nnc(-c3ccc(F)cc3F)o2)ccc1O	0.19 nM	0.624 nM	
O=C(NCCCCCCCCNc1c2c(nc3cc(Cl)ccc13)CCCC2)c1ccc2nc(-c3ccc(Cl)cc3)c3c(c2c1)OCCC3			inhibition [3]: 18.5%
Cc1cccc(C(=O)N2Cc3ccc(N4C(=O)c5ccccc5C4=O)cc3CC2=O)c1	25.5 nM	4.45 nM	
O=C(/C=C/c1ccc(O)c(O)c1)O[C@@H]1[C@H](O)C[C@@](O)(C(=O)O)C[C@H]1OC(=O)/C=C/c1ccc(O)c(O)c1	2140 nM	3310 nM	
CCC1=CC2Cc3nc4cc(Cl)ccc4c(NCCCN4CCC(CC5Cc6cc(OC)c(OC)cc6C5)CC4)c3C(C1)C2 (stereo in doubt; (-)-36b) [listing 1 of 2 here]			inhibition [4]: 14.9%
O=C(CCc1ccc2nc(-c3ccccc3)c3c(c2c1)OCCC3)NCCCCCCNc1c2c(nc3cc(Cl)ccc13)CCCC2			inhibition [3]: 19.6%
O=c1c(/C=N/Nc2ccc(C(F)(F)F)cc2)coc2cc3oc(-c4cccc(F)c4)cc3cc12	7600 nM	17300 nM	
Cc1cc2c(c(C)c1CCO[C@@H]1O[C@H](CO)[C@@H](O)[C@H](O)[C@H]1O)C(=O)[C@H](C)[C@H]2O	3770 nM	9740 nM	
COc1ccccc1C(=O)N1Cc2ccc(N3C(=O)c4ccccc4C3=O)cc2CC1=O	81.7 nM	2.96 nM	
COc1cc2c(cc1OC)CC(CC1CCN(CCNc3c4c(nc5cc(Cl)ccc35)CC3C=C(C)CC4C3)CC1)C2 (configuration not stated)	13 nM		inhibition [4]: 24.6%
COc1cc(/C=C/c2nnc(-c3ccc(F)cc3)o2)ccc1O	0.284 nM	0.479 nM	
CC(C)=CCCC1(C)C=Cc2c(ccc3cc(-c4cc(O)cc(O)c4CC=C(C)C)oc23)O1 (configuration not stated)	4610 nM		
COc1cc(O)cc(-c2cc3ccc(O)c(C/C=C(\C)CCC=C(C)C)c3o2)c1CC=C(C)C	> 200000 nM		
CCC1=CC2Cc3nc4cc(Cl)ccc4c(NCCN4CCC(CC5Cc6cc(OC)c(OC)cc6C5)CC4)c3C(C1)C2 (single isomer, unassigned; (-))	28.6 nM		inhibition [4]: 12.5%
COc1ccccc1NC(=O)C1CCN(C(=O)c2ccccc2)CC1	8.46 nM	18.5 nM	
COc1cc(O)c(C(=O)/C=C/c2ccc(O)cc2)cc1CC=C(C)C			inhibition [5]: 46%; inhibition [6]: 68%
C/C(=C\C1=CCN(C(=O)CCc2ccccc2)C(=O)C1)N1C(=O)c2ccccc2C1=O	55.3 nM	2.07 nM	
COc1cc2c(cc1OC)CC(CC1CCN(CCCNc3c4c(nc5cc(Cl)ccc35)CC3C=C(C)CC4C3)CC1)C2 (single isomer, unassigned; (-)) [listing 1 of 2 here]			inhibition [4]: 30.8%
COc1ccc(NCC2CCN(Cc3ccccc3)CC2)cc1OC	145 nM	243 nM	

SMILES	IC50 [1]	IC50 [2]	also measured
CC(C)=CCC/C(C)=C/CC/C(C)=C\Cc1c(O)cc(O)c(CC=C(C)C)c1-c1cc2ccc(O)cc2o1	13900 nM	2030 nM	
COc1ccc(C(=O)N2Cc3ccc(N4C(=O)c5ccccc5C4=O)cc3CC2=O)cc1	81.8 nM	1.69 nM	
CCC1=CC2Cc3nc4cc(Cl)ccc4c(NCCCN4CCC(CC5Cc6cc(OC)c(OC)cc6C5)CC4)c3C(C1)C2 (racemic) [listing 1 of 2 here]			inhibition [4]: 18%
C/C=C1/C(O[C@@H]2O[C@H](CO)[C@@H](O)[C@H](O)[C@H]2O)OC=C(C(=O)OC)C1CC(=O)OCCc1ccc(O)c(O)c1 (some centres not stated)		2760 nM	
O=c1c(O)c(-c2ccc(F)cc2)oc2cc(F)c(I)cc12	3.23 nM	32.2 nM	
C[C@@H]1O[C@@H](O[C@@H]2[C@@H](O)[C@H](OCCc3ccc(O)c(O)c3)O[C@H](CO)[C@H]2OC(=O)/C=C/c2ccc(O)c(O)c2)[C@H](O)[C@H](O)[C@H]1O [ACETOSIDE]		6.3 nM	
COc1ccc(/C=C/C(=O)c2cc(I)c(OC)cc2O)cc1	11 nM	70.8 nM	
COc1cc(/C=C/c2nnc(-c3ccc(Cl)cc3Cl)o2)ccc1O	0.22 nM	0.864 nM	
COc1cc2c(cc1OC)CC(CC1CCN(CCCNc3c4c(nc5cc(Cl)ccc35)CC3C=C(C)CC4C3)CC1)C2 (racemic) [listing 1 of 2 here]			inhibition [4]: 29.1%
O=c1c(O)c(-c2ccc(O)c(O)c2)oc2cc(O)cc(O)c12 [QUERCETIN]	2910 nM		
COc1cc2c(cc1OC)CC(CC1CCN(CCCNc3c4c(nc5cc(Cl)ccc35)CC3C=C(C)CC4C3)CC1)C2 (racemic) [listing 2 of 2 here]	5.37 nM		
COc1ccc(NC(=O)C2CCN(C(=O)c3ccccc3)CC2)cc1OC	4.11 nM	18.3 nM	
COc1ccc(-c2cc3cc4c(=O)c(/C=N/Nc5ccc(C(F)(F)F)cc5)coc4cc3o2)cc1	5400 nM	25300 nM	
COc1ccc(-c2oc3cc(OC)c(I)cc3c(=O)c2O)cc1	7.19 nM	22.4 nM	
OCCc1ccc(O)c(O)c1 [HYDROXYTYROSOL]		35 nM	
COc1cc(/C=C/c2nnc(-c3ccc(OC(F)(F)F)cc3)o2)ccc1O	0.092 nM	0.211 nM	
CC(C)=CCc1c(O)ccc(C(=O)/C=C/c2ccc(O)cc2)c1O			inhibition [5]: 83%; inhibition [6]: 34%
COc1ccc(/C=C/C(=O)c2cc(I)c(Cl)cc2O)cc1	11.7 nM	13.8 nM	
O=c1c(/C=N/Nc2ccc(C(F)(F)F)cc2)coc2c1ccc1oc(-c3cccc(F)c3)cc12	10400 nM	15800 nM	
CC(C)=CCC/C(C)=C/Cc1c(O)ccc2cc(-c3cc(O)cc(O)c3CC=C(C)C)oc12 [MULBERROFURAN D]	23000 nM	3740 nM	
Cc1cc2c(c(C)c1CCO[C@@H]1O[C@H](CO)[C@@H](O)[C@H](O)[C@H]1O)C(=O)[C@H](C)C2	2550 nM	18000 nM	
O=C(/C=C/c1ccc(F)cc1)c1cc(I)c(Br)cc1O	11 nM	4.7 nM	

SMILES	IC50 [1]	IC50 [2]	also measured
O=C(CCc1ccc2nc(-c3ccccc3)c3c(c2c1)OCCC3)NCCCCCCCCNc1c2c(nc3cc(Cl)ccc13)CCCC2			inhibition [3]: 77.8%
CCC1=CC2Cc3nc4cc(Cl)ccc4c(NCCCN4CCC(CC5Cc6cc(OC)c(OC)cc6C5)CC4)c3C(C1)C2 (stereo in doubt; (-)-36b) [listing 2 of 2 here]	3.85 nM		
CCCCCCCCCCCC1=CC(=O)C=CC1=O			IC50 [7]: 2110 nM; IC50 [8]: 7910 nM; IC50 [9]: 2500 nM
COc1cc(O)c(C(=O)/C=C/c2ccc(F)cc2)cc1I	9.38 nM	25.1 nM	
COc1cc2c(cc1CC=C(C)C)C(=O)CC(c1ccc(O)cc1)O2 (configuration not stated)			inhibition [5]: 80%; inhibition [6]: 20%
O=c1c(/C=N/Nc2ccc(C(F)(F)F)cc2)coc2cc3oc(-c4cccc(Cl)c4)cc3cc12	18300 nM	32800 nM	
COc1cc(/C=C/c2nnc(-c3ccc(C(F)(F)F)cc3)o2)ccc1O	0.068 nM	0.255 nM	
COc1cc2c(cc1OC)CC(CC1CCN(CCCNc3c4c(nc5cc(Cl)ccc35)CC3C=C(C)CC4C3)CC1)C2 (single isomer, unassigned; (-)) [listing 2 of 2 here]	2.61 nM		
CC12CC(c3c(O)cc(-c4cc5ccc(O)cc5o4)cc3O)CC3c4ccc(O)cc4OC31C2 (configuration not stated)	> 200000 nM	1040 nM	
COc1ccc(-c2oc3cc(Br)c(I)cc3c(=O)c2O)cc1		15.7 nM	
O=C(CCc1ccc2nc(-c3ccccc3)c3c(c2c1)OCCC3)NCCCCCCCNc1c2c(nc3cc(Cl)ccc13)CCCC2	11.4 nM		inhibition [3]: 34.4%
Oc1cc(O)cc(Oc2c(O)cc(O)c3c2Oc2c(cc(O)c(-c4c(O)cc5c(c4O)Oc4c(Oc6cc(O)cc(O)c6)c(O)cc(O)c4O5)c2O)O3)c1	4590 nM		
O=c1c(/C=N/Nc2ccc(C(F)(F)F)cc2)coc2c1ccc1oc(-c3ccc(Cl)cc3)cc12	5400 nM	13600 nM	
C[C@@H]1O[C@@H](OC[C@H]2O[C@@H](Oc3c(-c4ccc(O)c(O)c4)oc4cc(O)cc(O)c4c3=O)[C@H](O)[C@@H](O)[C@@H]2O)[C@H](O)[C@H](O)[C@H]1O [RUTIN]	113000 nM	3.8 nM	
COc1ccc(NCC2CCN(Cc3ccccc3)CC2)cc1	165 nM	253 nM	
COc1ccccc1NCC1CCN(Cc2ccccc2)CC1	157 nM	277 nM	
COc1ccc(NC(=O)C2CCN(C(=O)c3ccccc3)CC2)cc1	9.78 nM	19.1 nM	
COc1cc(/C=C/c2nnc(-c3ccc(Cl)cc3)o2)ccc1O	0.334 nM	0.628 nM	
CC(C)=CCc1cc2c(cc1O)O[C@H](c1ccc(O)cc1)CC2=O			inhibition [5]: 34%; inhibition [6]: 14%
Cc1cc2c(c(C)c1CCO[C@@H]1O[C@H](CO)[C@@H](O)[C@H](O)[C@H]1O)C(=O)[C@@H](C)[C@H]2O	9170 nM		
CCC1=CC2Cc3nc4cc(Cl)ccc4c(NCCCN4CCC(CC5Cc6cc(OC)c(OC)cc6C5)CC4)c3C(C1)C2 (racemic) [listing 2 of 2 here]	6.32 nM		
O=c1c(O)c(-c2ccc(Cl)cc2)oc2cc(F)c(I)cc12	3.45 nM	16.7 nM	
